The values below come from ChEMBL document CHEMBL1128754, “The SAR of 6-(N-alkyl-N-acyl)-2-propyl-3-[(2-tetrazol-5-yl)biphen-4-yl)methyl]-quinazolinones as balanced affinity antagonists of the human AT1 and AT2 receptors” (Bioorg Med Chem Lett, 1995).

Positions count from the first letter of the chain named.

Series [1] concerns the target T1, Type-1 angiotensin II receptor (Oryctolagus cuniculus, UniProt P34976).
T1 sequence (P34976 whole entry): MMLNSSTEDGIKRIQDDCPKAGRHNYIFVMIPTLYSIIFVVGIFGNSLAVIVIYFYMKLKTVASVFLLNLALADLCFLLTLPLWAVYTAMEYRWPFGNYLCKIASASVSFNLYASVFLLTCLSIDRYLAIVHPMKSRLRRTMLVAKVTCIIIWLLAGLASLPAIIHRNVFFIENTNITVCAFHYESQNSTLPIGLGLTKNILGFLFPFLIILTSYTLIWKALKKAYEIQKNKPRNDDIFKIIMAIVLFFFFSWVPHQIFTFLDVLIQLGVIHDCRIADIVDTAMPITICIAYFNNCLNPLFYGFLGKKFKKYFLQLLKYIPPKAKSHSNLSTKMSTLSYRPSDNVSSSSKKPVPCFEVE
In words: biochemical.
Description: Binding affinity against AT1 receptor in rabbit aorta

A further series can be described thus: physchem. The note with it: octanol/water.
The species named for series [2] is Rattus norvegicus. The note with it: dose 1 mg/kg; route intravenous.
The target in series [3] is Angiotensin II receptor (Homo sapiens) (UniProt P30556+P50052). Briefly: Ratio of receptor binding affinity AT2/AT1 in human adrenal tissue in th+e presence of 2 mg/ml bovine serum albumin. The format is protein assay.
In series [4] the target is T2, Angiotensin II receptor (AT-1) type-1 (Rattus norvegicus, UniProt P29089+P25095).
T2 sequence (P29089 whole entry): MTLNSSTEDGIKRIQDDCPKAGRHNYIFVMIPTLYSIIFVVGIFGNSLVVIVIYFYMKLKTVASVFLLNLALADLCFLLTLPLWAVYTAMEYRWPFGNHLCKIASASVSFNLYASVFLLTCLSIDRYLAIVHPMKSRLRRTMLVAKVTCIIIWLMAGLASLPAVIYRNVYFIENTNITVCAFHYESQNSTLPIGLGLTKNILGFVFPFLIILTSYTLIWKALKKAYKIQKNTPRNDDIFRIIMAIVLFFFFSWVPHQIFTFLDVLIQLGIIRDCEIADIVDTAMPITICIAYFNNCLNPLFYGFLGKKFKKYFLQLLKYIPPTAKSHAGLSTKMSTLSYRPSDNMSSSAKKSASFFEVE
T2 sequence (P25095 whole entry): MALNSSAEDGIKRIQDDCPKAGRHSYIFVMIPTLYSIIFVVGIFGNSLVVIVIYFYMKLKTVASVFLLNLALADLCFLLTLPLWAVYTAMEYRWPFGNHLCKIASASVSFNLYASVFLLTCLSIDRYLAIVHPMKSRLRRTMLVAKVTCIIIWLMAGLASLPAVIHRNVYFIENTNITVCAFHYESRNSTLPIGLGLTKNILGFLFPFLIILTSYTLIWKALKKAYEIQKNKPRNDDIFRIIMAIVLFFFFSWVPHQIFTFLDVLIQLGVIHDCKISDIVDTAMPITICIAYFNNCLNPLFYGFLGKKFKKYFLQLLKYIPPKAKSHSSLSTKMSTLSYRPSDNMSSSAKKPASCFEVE
Briefly: Binding affinity against AT1 receptor in rat adrenal tissue. In kind it is tissue-based.

Series [5] concerns the target T3, Type-1 angiotensin II receptor (Homo sapiens, UniProt P30556).
T3 sequence (P30556 whole entry): T1 sequence (P34976 whole entry) with M2I, A49V, V254I, V270I, H272R, K311R, S349T, V353A
Briefly: biochemical.
Description: Binding affinity against AT1 receptor in human adrenal tissue

Series [6] deals with Angiotensin II receptor (Rattus norvegicus) (UniProt P29089+P25095+P35351). In words: Ratio of receptor binding affinity AT2/AT1 in rat adrenal tissue.
Series [7] is filed under the species Rattus norvegicus. The note with it: dose 1 mg/kg; route oral.

Angiotensin II receptor (Homo sapiens), sequence (P30556 whole entry, looked up): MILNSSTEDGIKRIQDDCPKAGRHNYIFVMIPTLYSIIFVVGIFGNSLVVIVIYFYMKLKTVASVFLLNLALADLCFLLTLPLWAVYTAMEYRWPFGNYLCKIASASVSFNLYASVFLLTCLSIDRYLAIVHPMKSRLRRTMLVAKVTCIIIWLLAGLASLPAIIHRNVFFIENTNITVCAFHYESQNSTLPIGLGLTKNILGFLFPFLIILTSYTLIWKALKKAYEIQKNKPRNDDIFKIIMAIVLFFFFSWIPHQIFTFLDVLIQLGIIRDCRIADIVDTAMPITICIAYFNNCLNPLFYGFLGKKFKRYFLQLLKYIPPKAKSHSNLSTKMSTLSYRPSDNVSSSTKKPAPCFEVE
Angiotensin II receptor (Homo sapiens), sequence (P50052 whole entry, looked up): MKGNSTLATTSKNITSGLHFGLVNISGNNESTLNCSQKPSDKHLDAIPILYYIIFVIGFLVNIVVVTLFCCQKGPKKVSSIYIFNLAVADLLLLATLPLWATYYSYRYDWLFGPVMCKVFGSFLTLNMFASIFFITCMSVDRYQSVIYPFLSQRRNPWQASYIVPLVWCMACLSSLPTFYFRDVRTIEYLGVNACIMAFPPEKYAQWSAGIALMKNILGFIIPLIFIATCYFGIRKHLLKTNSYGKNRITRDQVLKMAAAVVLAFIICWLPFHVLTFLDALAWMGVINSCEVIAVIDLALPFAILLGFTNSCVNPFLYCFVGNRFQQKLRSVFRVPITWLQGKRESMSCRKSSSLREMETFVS
Description for physchem: Partition coefficient (logP)

Regarding `Cn1nnnc1-c1ccccc1-c1ccc(Cn2cnc3ccc(N(Cc4ccccc4)C(=O)c4ccncc4)cc3c2=O)cc1`, in series [1], half-maximal inhibition (IC50) required 3.4 nM. Besides, the logP (as a rule, a log measure of how a compound divides between an organic and an aqueous phase) in “physchem” was 3.7.

Regarding `COCCOCCN(C(=O)c1ccccc1)c1ccc2ncn(Cc3ccc(-c4ccccc4-c4nnnn4C)cc3)c(=O)c2c1`, in series [1], half-maximal inhibition (IC50) was put at 2.2 nM. The compound further came in with a logP in the series “physchem” of 3.6.

For `CCOCCN(C(=O)c1ccccc1)c1ccc2ncn(Cc3ccc(-c4ccccc4-c4nnnn4C)cc3)c(=O)c2c1`, inhibition in series [1] was half-maximal at 1.6 nM (IC50). For the same compound, the logP in the series “physchem” was determined as 3.9.

Take `CCCCCN(C(=O)c1ccc(F)cc1)c1ccc2ncn(Cc3ccc(-c4ccccc4-c4nnnn4C)cc3)c(=O)c2c1`: half-maximal inhibition in series [1] (IC50) was put at 1.7 nM. The same compound showed a logP in “physchem” of 5.2.

With `CC(=O)OCCCCN(C(=O)c1ccccc1)c1ccc2ncn(Cc3ccc(-c4ccccc4-c4nnnn4C)cc3)c(=O)c2c1`, in series [1], the IC50 (as a rule, the concentration that inhibits the measured activity by half) is 1.3 nM. This compound also returned a logP in “physchem” of 3.3.

In series [1], `CCCCCN(C(=O)c1ccc(S(C)(=O)=O)cc1)c1ccc2ncn(Cc3ccc(-c4ccccc4-c4nnnn4C)cc3)c(=O)c2c1` returned a 50% inhibitory concentration (IC50) of 7.2 nM. In the series “physchem”, this compound returned a logP of 4.4.

Turning to `CCCCN(C(=O)c1ccc(F)cc1)c1ccc2ncn(Cc3ccc(-c4ccccc4-c4nnnn4C)cc3)c(=O)c2c1`, the 50% inhibitory concentration (IC50) in series [1] came to 2.3 nM. In “physchem”, this compound showed a logP of 4.7.

In turn, `CCCCCN(C(=O)c1ccco1)c1ccc2ncn(Cc3ccc(-c4ccccc4-c4nnnn4C)cc3)c(=O)c2c1` showed an IC50 in series [1] of 3.2 nM. This compound displayed a Duration in the series filed under Rattus norvegicus [2] of less than 3 h.

For the compound `CCCCCN(C(=O)c1ccc(OCc2ccccc2)cc1)c1ccc2ncn(Cc3ccc(-c4ccccc4-c4nnnn4C)cc3)c(=O)c2c1`, in series [1], the IC50 came to 8.4 nM. Moreover, the logP in the series “physchem” is more than 5.7.

For `CCOC(=O)CCCN(C(=O)c1ccccc1)c1ccc2ncn(Cc3ccc(-c4ccccc4-c4nnnn4C)cc3)c(=O)c2c1`, the IC50 in series [1] came to 2.3 nM. The same compound came in with a logP in the series “physchem” of 4.1.

`Cn1nnnc1-c1ccccc1-c1ccc(Cn2cnc3ccc(N(Cc4ccc(C(=O)O)cc4)C(=O)c4ccccc4)cc3c2=O)cc1` registered an IC50 in series [1] of 6.5 nM. Further, the logP in “physchem” came to 2.4.

`Cn1nnnc1-c1ccccc1-c1ccc(Cn2cnc3ccc(N(CCCC(=O)O)C(=O)c4ccccc4)cc3c2=O)cc1` registered an IC50 in series [1] of 9.5 nM. Moreover, the logP in “physchem” came to 2.3.

In turn, `Cn1nnnc1-c1ccccc1-c1ccc(Cn2cnc3ccc(N(C(=O)c4ccccc4)c4ccccc4)cc3c2=O)cc1` registered an IC50 in series [1] of 2.5 nM.

On to `CCCCN(C(=O)c1ccc(O)cc1)c1ccc2ncn(Cc3ccc(-c4ccccc4-c4nnnn4C)cc3)c(=O)c2c1`, for which the Ratio in series [3] was 6.8; in series [6], 17. For the same compound, the half-inhibitory concentration (IC50) stood at 0.3 nM in series [4], 4 nM in series [5] and 1.2 nM in series [1]. This compound also displayed a logP in “physchem” of 4.2. The same compound yielded a Duration in the series filed under Rattus norvegicus [2] of more than 3 h.

Take `Cn1nnnc1-c1ccccc1-c1ccc(Cn2cnc3ccc(N(Cc4ccccc4)C(=O)c4ccccc4)cc3c2=O)cc1`: the results for the half-maximal inhibitory concentration (IC50) in series [4] and in series [1] were 0.6 nM and 4.6 nM, respectively. The Ratio in series [6] was 0.1. Further, the logP in “physchem” amounted to 4.5. In addition, in the series filed under Rattus norvegicus [2], the Duration is less than 3 h.

Take `CCCCCN(Cc1ccccc1)c1ccc2ncn(Cc3ccc(-c4ccccc4-c4nnnn4C)cc3)c(=O)c2c1`: the midpoint of inhibition in series [1], the IC50, lay at 20 nM.

On to `CCCCCN(C(=O)c1ccncc1)c1ccc2ncn(Cc3ccc(-c4ccccc4-c4nnnn4C)cc3)c(=O)c2c1`, for which the midpoint of inhibition in series [1], the IC50, lay at 2.8 nM. The logP in “physchem” worked out at 4.3. In the series listed under Rattus norvegicus [2], this compound yielded a Duration of more than 3 h.

`Cn1nnnc1-c1ccccc1-c1ccc(Cn2cnc3ccc(N(CCCCO)C(=O)c4ccccc4)cc3c2=O)cc1` came in with a half-inhibitory concentration (IC50) in series [1] of 2.6 nM.

Consider `COC(=O)c1ccc(CN(C(=O)c2ccccc2)c2ccc3ncn(Cc4ccc(-c5ccccc5-c5nnnn5C)cc4)c(=O)c3c2)cc1`, for which the Ratio turned out to be 1.7 in series [3] and 1.9 in series [6]. In addition, the IC50 in series [4] is 0.8 nM; in series [5], 9.6 nM; in series [1] it was 3.9 nM. The logP in “physchem” amounted to 4.4. In the series filed under Rattus norvegicus [2], this compound came in with a Duration of less than 3 h.

For `Cn1nnnc1-c1ccccc1-c1ccc(Cn2cnc3ccc(N(Cc4ccccc4)C(=O)c4ccccn4)cc3c2=O)cc1`, in series [1], 9.3 nM corresponded to half-maximal inhibition (IC50). Besides, the logP in “physchem” was found to be 3.8.

With `Cn1nnnc1-c1ccccc1-c1ccc(Cn2cnc3ccc(N(Cc4ccccc4)C(=O)c4cccnc4)cc3c2=O)cc1`, the IC50 in series [1] came to 11 nM. The logP in “physchem” amounted to 3.7.

Compound `Cn1nnnc1-c1ccccc1-c1ccc(Cn2cnc3ccc(N(CC(=O)c4ccco4)C(=O)c4ccccc4)cc3c2=O)cc1` came in with an IC50 in series [1] of 18.5 nM.

`CCCCCN(C(=O)c1ccc(SC)cc1)c1ccc2ncn(Cc3ccc(-c4ccccc4-c4nnnn4C)cc3)c(=O)c2c1`: in series [1], the IC50 is 6.4 nM.

`Cn1nnnc1-c1ccccc1-c1ccc(Cn2cnc3ccc(N(Cc4ccccn4)C(=O)c4ccccc4)cc3c2=O)cc1`: the figures for the Ratio in series [3] and in series [6] were 0.2 and 0.5, respectively. For the same compound, the figures for the IC50 in series [4], in series [5] and in series [1] were 1.3 nM, 5.09 nM and 6.7 nM, respectively. The compound further registered a logP in the series “physchem” of 3.6.

`Cn1nnnc1-c1ccccc1-c1ccc(Cn2cnc3ccc(N(Cc4ccncc4)C(=O)c4ccccc4)cc3c2=O)cc1` displayed a concentration for half-maximal inhibition (IC50) in series [1] of 5.5 nM. The compound also returned a logP in “physchem” of 3.4.

For `CCCCC(=O)N(Cc1ccccc1)c1ccc2ncn(Cc3ccc(-c4ccccc4-c4nnnn4C)cc3)c(=O)c2c1`, the Ratio in series [3] came out at 0.1. The IC50 in series [5] was 5.7 nM; in series [1] it was 2.4 nM. Besides, the logP in the series “physchem” came out at 5.4. Also, the Duration in the series filed under Rattus norvegicus [7] and in the series filed under Rattus norvegicus [2] was more than 3 h throughout.

In turn, `CCCCCN(C(=O)c1cccnc1)c1ccc2ncn(Cc3ccc(-c4ccccc4-c4nnnn4C)cc3)c(=O)c2c1` gave an IC50 in series [1] of 4.5 nM. Also, in the series “physchem”, the logP amounted to 4.3. In the series filed under Rattus norvegicus [2], this compound registered a Duration of less than 3 h.

In series [1], `CCCN(C(=O)c1ccc(F)cc1)c1ccc2ncn(Cc3ccc(-c4ccccc4-c4nnnn4C)cc3)c(=O)c2c1` registered an IC50 of 1.9 nM. In the series “physchem”, this compound returned a logP of 4.3.

As to `CCCCCN(C(=O)c1ccc(O)cc1)c1ccc2ncn(Cc3ccc(-c4ccccc4-c4nnnn4C)cc3)c(=O)c2c1`, the Ratio in series [3] is 5.8; in series [6], 3.1. Besides, the IC50 in series [4] amounted to 0.5 nM; in series [5] it was 4.9 nM; in series [1], 0.9 nM. This compound also returned a logP in “physchem” of 4.7. Besides, the Duration in the series filed under Rattus norvegicus [2] is more than 3 h.

Consider `CCCCCN(C(=O)c1ccccc1OC)c1ccc2ncn(Cc3ccc(-c4ccccc4-c4nnnn4C)cc3)c(=O)c2c1`, for which the IC50 in series [1] turned out to be 1.1 nM. In addition, in “physchem”, the logP came to 5.

Take `CCCCS(=O)(=O)N(Cc1ccccc1)c1ccc2ncn(Cc3ccc(-c4ccccc4-c4nnnn4C)cc3)c(=O)c2c1`: it took 23 nM to reach half-maximal inhibition in series [1] (IC50).

For `Cn1nnnc1-c1ccccc1-c1ccc(Cn2cnc3ccc(N(Cc4ccc(O)cc4)C(=O)c4ccccc4)cc3c2=O)cc1`, the Ratio is 0.8 in series [3] and 1.5 in series [6]. Besides, the IC50 in series [4] amounted to 0.5 nM; in series [5] it was 6 nM; in series [1], 4.9 nM. This compound showed a logP in “physchem” of 3.6.

`CCCCCN(C(=O)c1ccc([S+](C)[O-])cc1)c1ccc2ncn(Cc3ccc(-c4ccccc4-c4nnnn4C)cc3)c(=O)c2c1` (stereo not drawn) registered an IC50 in series [1] of 21 nM. In the series “physchem”, the logP is 4.3. In the series filed under Rattus norvegicus [2], this compound registered a Duration of less than 3 h.
